System: human (tumor) Hif2α (EPAS1) mRNA
Experiment: Hif2α knockdown in orthotopic RCC tumor bearing mice, single injection of RNAi trigger-delivery polymer conjugate, RT-qPCR (Table 7)
Format: in vivo
Details: single tail vein injection, relative to isotonic glucose
Outline: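 Female athymic nude mice carried orthotopic A498-SEAP ccRCC kidney tumours, used 5–6 weeks after implantation. They received one tail-vein injection of RGD-targeted Hif2α RNAi trigger–polymer conjugate or isotonic glucose. Tumour Hif2α mRNA was measured by TaqMan RT-qPCR normalised to CycA (ΔΔCT) and expressed relative to glucose-treated mice.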

[1] = RNAi trigger 100 μg, polymer 064 250 μg

Substance	Relative Expression day 4 (Hif2α mRNA in kidney tumor) [1]	also measured
AD01887 (antisense UCUAGCAACAAAACCUUAATT; sense UUAAGGUUUUGUUGCUAGAT; Hif2alpha RNAi agent antisense strand; modified_base 2,4,6,9,10,13,14,16,18 /mod_base = “2′-deoxy-2′-fluoro corresponding nucleoside”; modified_base 1,3,5,7,8,11,12,15,17,19 /mod_base = “2′-O-methyl corresponding nucleoside”; modified_base 2,3,21 /mod_base = “5′-phosphorothioate corresponding nucleotide”; Hif2alpha RNAi agent sense strand; modified_base 3,5,8,9,13,15,17 /mod_base = “2′-deoxy-2′-fluoro corresponding nucleoside”; modified_base 1,2,4,6,7,10,11,12,14,16,18,19 /mod_base = “2′-O-methyl corresponding nucleoside”; modified_base 20 /mod_base = “3′-3′-linked nucleotide”; modified_base)	0.329	–
AD01888 (antisense UCUAGCAACAAAACCUUAATT; sense UUAAGGUUUUGUUGCUAGAT; Hif2alpha RNAi agent antisense strand; modified_base 2,4,6,8,10,12,14,15,18 /mod_base = “2′-deoxy-2′-fluoro corresponding nucleoside”; modified_base 1,3,5,7,9,11,13,16,17,19 /mod_base = “2′-O-methyl corresponding nucleoside”; modified_base 2,3,21 /mod_base = “5′-phosphorothioate corresponding nucleotide”; Hif2alpha RNAi agent sense strand; modified_base 1,3,4,7,9,11,13,15,17,19 /mod_base = “2′-deoxy-2′-fluoro corresponding nucleoside”; modified_base 2,5,6,8,10,12,14,16,18 /mod_base = “2′-O-methyl corresponding nucleoside”; modified_base 20 /mod_base = “3′-3′-linked nucleotide”; modified_base)	0.209	–
AD01889 (antisense UCUAGCAACAAAACCUUAATT; sense UUAAGGUUUUGUUGCUAGAT; Hif2alpha RNAi agent antisense strand; modified_base 2,4,6,9,10,12,14,15,18 /mod_base = “2′-deoxy-2′-fluoro corresponding nucleoside”; modified_base 1,3,5,7,8,11,13,16,17,19 /mod_base = “2′-O-methyl corresponding nucleoside”; modified_base 2,3,21 /mod_base = “5′-phosphorothioate corresponding nucleotide”; Hif2alpha RNAi agent sense strand; modified_base 3,4,7,9,13,15,17 /mod_base = “2′-deoxy-2′-fluoro corresponding nucleoside”; modified_base 1,2,5,6,8,10,11,12,14,16,18,19 /mod_base = “2′-O-methyl corresponding nucleoside”; modified_base 20 /mod_base = “3′-3′-linked nucleotide”; modified_base)	0.282	–
AD01890 (antisense UGUAAAACAAUUGUGUACUTT; sense AGUACACAAUUGUUUUACAT; Hif2alpha RNAi agent antisense strand; modified_base 2,4,6,8,10,13,14,16,18 /mod_base = “2′-deoxy-2′-fluoro corresponding nucleoside”; modified_base 1,3,5,7,9,11,12,15,17,19 /mod_base = “2′-O-methyl corresponding nucleoside”; modified_base 2,3,21 /mod_base = “5′-phosphorothioate corresponding nucleotide”; Hif2alpha RNAi agent sense strand; modified_base 1,3,5,8,9,11,13,15,17,19 /mod_base = “2′-deoxy-2′-fluoro corresponding nucleoside”; modified_base 2,4,6,7,10,12,14,16,18 /mod_base = “2′-O-methyl corresponding nucleoside”; modified_base 20 /mod_base = “3′-3′-linked nucleotide”; modified_base)	0.256	–
AD01891 (antisense UGUAAAACAAUUGUGUACUTT; sense AGUACACAAUUGUUUUACAT; Hif2alpha RNAi agent antisense strand; modified_base 2,4,6,8,10,13,14,16,18 /mod_base = “2′-deoxy-2′-fluoro corresponding nucleoside”; modified_base 1,3,5,7,9,11,12,15,17,19 /mod_base = “2′-O-methyl corresponding nucleoside”; modified_base 2,3,21 /mod_base = “5′-phosphorothioate corresponding nucleotide”; Hif2alpha RNAi agent sense strand; modified_base 3,5,8,9,11,13,17 /mod_base = “2′-deoxy-2′-fluoro corresponding nucleoside”; modified_base 1,2,4,6,7,10,12,14,15,16,18,19 /mod_base = “2′-O-methyl corresponding nucleoside”; modified_base 20 /mod_base = “3′-3′-linked nucleotide”; modified_base)	0.189	–
AD01892 (antisense UGUAAAACAAUUGUGUACUTT; sense AGUACACAAUUGUUUUACAT; Hif2alpha RNAi agent antisense strand; modified_base 2,4,6,8,10,12,14,15,18 /mod_base = “2′-deoxy-2′-fluoro corresponding nucleoside”; modified_base 1,3,5,7,9,11,13,16,17,19 /mod_base = “2′-O-methyl corresponding nucleoside”; modified_base 2,3,21 /mod_base = “5′-phosphorothioate corresponding nucleotide”; Hif2alpha RNAi agent sense strand; modified_base 1,3,4,7,9,11,13,15,17,19 /mod_base = “2′-deoxy-2′-fluoro corresponding nucleoside”; modified_base 2,5,6,8,10,12,14,16,18 /mod_base = “2′-O-methyl corresponding nucleoside”; modified_base 20 /mod_base = “3′-3′-linked nucleotide”; modified_base)	0.146	–
AD01893 (antisense UGUAAAACAAUUGUGUACUTT; sense AGUACACAAUUGUUUUACAT; Hif2alpha RNAi agent antisense strand; modified_base 2,4,6,8,10,12,14,15,18 /mod_base = “2′-deoxy-2′-fluoro corresponding nucleoside”; modified_base 1,3,5,7,9,11,13,16,17,19 /mod_base = “2′-O-methyl corresponding nucleoside”; modified_base 2,3,21 /mod_base = “5′-phosphorothioate corresponding nucleotide”; Hif2alpha RNAi agent sense strand; modified_base 3,4,7,9,11,13,17 /mod_base = “2′-deoxy-2′-fluoro corresponding nucleoside”; modified_base 1,2,5,6,8,10,12,14,15,16,18,19 /mod_base = “2′-O-methyl corresponding nucleoside”; modified_base 20 /mod_base = “3′-3′-linked nucleotide”; modified_base)	0.115	–
AD02074 (antisense TUUCAUGAAAUCGUUACGUTT; sense ACGUAACGAUUUCAUGAAAT; Hif2alpha RNAi agent antisense strand; modified_base 2,4,6,8,10,14,16,18 /mod_base = “2′-deoxy-2′-fluoro corresponding nucleoside”; modified_base 3,5,7,9,11,12,13,15,17,19 /mod_base = “2′-O-methyl corresponding nucleoside”; modified_base 2,3,21 /mod_base = “5′-phosphorothioate corresponding nucleotide”; Hif2alpha RNAi agent sense strand; modified_base 1,3,5,7,8,9,11,13,15,17,19 /mod_base = “2′-deoxy-2′-fluoro corresponding nucleoside”; modified_base 2,4,6,10,12,14,16,18 /mod_base = “2′-O-methyl corresponding nucleoside”; modified_base 20 /mod_base = “3′-3′-linked nucleotide”; modified_base 1)	–	Relative Expression day 4 (Hif2α mRNA in kidney tumor) (RNAi trigger 50 μg, polymer 064 125 μg): 0.566
AD02691 (antisense UUUCAUGAAAUCGUUACGUUG; sense ACGUAACGAUUUCAUGAAAT; Hif2alpha RNAi agent antisense strand; modified_base 2,4,6,8,10,14,16,18 /mod_base = “2′-deoxy-2′-fluoro corresponding nucleoside”; modified_base 1,3,5,7,9,11,12,13,15,17,19,20,21 /mod_base = “2′-O-methyl corresponding nucleoside”; modified_base 2,3,20,21 /mod_base = “5′-phosphorothioate corresponding nucleotide”; Hif2alpha RNAi agent sense strand; modified_base 1,3,5,7,8,9,11,13,15,17 /mod_base = “2′-deoxy-2′-fluoro corresponding nucleoside”; modified_base 2,4,6,10,12,14,16,18,19 /mod_base = “2′-O-methyl corresponding nucleoside”; modified_base 20 /mod_base = “3′-3′-linked nucleotide”; modi)	–	Relative Expression day 4 (Hif2α mRNA in kidney tumor) (RNAi trigger 75 μg, polymer 064 187.5 μg): 0.124

Source: patent US9976141B2, “Compositions and methods for inhibiting gene expression of Hif2alpha” (Arrowhead Madison Inc., priority 2015, dated 2018)
